The structures appear in SMILES notation. pKd: −log10 of the molar value. Numbered stars: 1 amine (or outer) side, 2 acyl side, 3 side chain; on linkers, the order of the positions; unused ones are H or OH. Bridge positions count the residues as written; N and C are the ends. Square brackets hold non-standard residues; d marks the D form. Peptide text beside a SMILES is read from it. * marks the point of attachment. DOTA = O=C(O)CN1CCN(CC(=O)O)CCN(CC(=O)*)CCN(CC(=O)O)CC1; 1Nal = N[C@@H](Cc1cccc2ccccc12)C(=O)O; Ala(4-THP) = N[C@@H](CC1CCOCC1)C(=O)O; oXylylene = c1ccc(C[*:2])c(C[*:1])c1; Gly(4-THP) = N[C@H](C(=O)O)C1CCOCC1; Gly(cPent) = N[C@H](C(=O)O)C1CCCC1; Ala(cPr) = N[C@@H](CC1CC1)C(=O)O; 3Pal = N[C@@H](Cc1cccnc1)C(=O)O; 4Pal = N[C@@H](Cc1ccncc1)C(=O)O; Chg = N[C@H](C(=O)O)C1CCCCC1; αMeP = C[C@@]1(C(=O)O)CCCN1 Some results are limits rather than exact numbers.

The target in this experiment is T1, human DLL3 (Homo sapiens, UniProt Q9NYJ7).
T1 construct: biotin (biotinylated)
T1 sequence (Q9NYJ7 27-618): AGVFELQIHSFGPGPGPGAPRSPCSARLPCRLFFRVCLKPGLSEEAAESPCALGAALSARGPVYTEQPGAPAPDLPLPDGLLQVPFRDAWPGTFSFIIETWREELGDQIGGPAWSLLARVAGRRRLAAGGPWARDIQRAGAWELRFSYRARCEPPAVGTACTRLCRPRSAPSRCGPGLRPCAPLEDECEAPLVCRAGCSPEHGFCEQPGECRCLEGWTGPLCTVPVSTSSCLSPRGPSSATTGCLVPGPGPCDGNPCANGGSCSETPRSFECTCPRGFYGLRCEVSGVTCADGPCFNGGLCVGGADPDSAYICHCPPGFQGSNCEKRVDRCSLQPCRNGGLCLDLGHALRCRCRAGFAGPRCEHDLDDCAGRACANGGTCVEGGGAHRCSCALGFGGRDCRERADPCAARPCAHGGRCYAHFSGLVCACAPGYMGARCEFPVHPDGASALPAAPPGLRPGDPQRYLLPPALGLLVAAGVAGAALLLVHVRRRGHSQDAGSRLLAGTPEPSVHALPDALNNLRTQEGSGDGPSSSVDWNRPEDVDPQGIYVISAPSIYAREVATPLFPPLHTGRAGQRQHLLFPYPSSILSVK
As to the kind of experiment: Affinity determination by Surface Plasmon Resonance (SPR), Biacore, 1:1 binding model. The conditions noted are these: biotinylated human DLL3 on streptavidin chip, 25° C.; NB = nonbinding. Put shortly: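 SPR with biotinylated human DLL3 captured on a streptavidin chip, with a reference surface subtracted. Samples were injected at several concentrations at 100 μL/min in phosphate buffer with 137 mM NaCl, 2.7 mM KCl, 0.05% P20 and 2% DMSO. Kinetic and affinity constants came from a 1:1 binding fit.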
For `CC(=O)N[C@H](C(=O)N[C@@H](CO)C(=O)N[C@@H](CC(=O)O)C(=O)N[C@H]1CSSC[C@@H](C(=O)N2CCC[C@@]2(C)C(=O)N[C@@H](Cc2ccccc2)C(=O)N[C@@H](CC(=O)O)C(=O)N[C@H](CCCCNC(=O)CN2CCN(CC(=O)O)CCN(CC(=O)O)CCN(CC(=O)O)CC2)C(N)=O)NC(=O)[C@H](CC(N)=O)NC(=O)[C@H](Cc2c[nH]c3ccccc23)NC(=O)[C@H](C2CCOCC2)NC(=O)[C@H](CC(C)C)NC(=O)[C@H](Cc2cccc3ccccc23)NC1=O)C1CCCCC1` [compound 133, Ac-(Chg)-S-D-C(3)-(1Nal)-L-(THPG)-W-N-C(3)-(aMe-P)-F-D-[D-Lys(DOTA)]-NH2] (Ac-[Chg]SDC[1Nal]L[Gly(4-THP)]WNC[αMeP]FD[dK](DOTA)-NH2; disulfide 4-10), the negative-log Kd (pKd) was < 7.52.
As for `CC(=O)N[C@H](C(=O)N[C@@H](CO)C(=O)N[C@@H](CC(=O)O)C(=O)N[C@H]1CSSC[C@@H](C(=O)N2CCC[C@@]2(C)C(=O)N[C@@H](Cc2ccccc2)C(=O)N[C@@H](CC(=O)O)C(=O)N[C@H](CCCCNC(=O)CN2CCN(CC(=O)O)CCN(CC(=O)O)CCN(CC(=O)O)CC2)C(N)=O)NC(=O)[C@H](CC2CCOCC2)NC(=O)[C@H](Cc2c[nH]c3ccccc23)NC(=O)[C@H](CCC(N)=O)NC(=O)[C@H](CC(C)C)NC(=O)[C@H](Cc2cccc3ccccc23)NC1=O)C1CCCCC1` [compound 134, Ac-(Chg)-S-D-C(3)-(1Nal)-L-Q-W-(THPA)-C(3)-(aMe-P)-F-D-[D-Lys(DOTA)]-NH2] (Ac-[Chg]SDC[1Nal]LQW[Ala(4-THP)]C[αMeP]FD[dK](DOTA)-NH2; disulfide 4-10), the pKd is 8.45.
With `CC(=O)N[C@H](C(=O)N[C@@H](CO)C(=O)N[C@@H](CC(=O)O)C(=O)N[C@H]1CSSC[C@@H](C(=O)N2CCC[C@@]2(C)C(=O)N[C@@H](Cc2ccccc2)C(=O)N[C@@H](CC(=O)O)C(=O)N[C@H](CCCCNC(=O)CN2CCN(CC(=O)O)CCN(CC(=O)O)CCN(CC(=O)O)CC2)C(N)=O)NC(=O)[C@H](C2CCOCC2)NC(=O)[C@H](Cc2c[nH]c3ccccc23)NC(=O)[C@H](CCC(N)=O)NC(=O)[C@H](CC(C)C)NC(=O)[C@H](Cc2cccc3ccccc23)NC1=O)C1CCCCC1` [compound 135, Ac-(Chg)-S-D-C(3)-(1Nal)-L-Q-W-(THPG)-C(3)-(aMe-P)-F-D-[D-Lys(DOTA)]-NH2] (Ac-[Chg]SDC[1Nal]LQW[Gly(4-THP)]C[αMeP]FD[dK](DOTA)-NH2; disulfide 4-10), the pKd is < 7.52.
On the same count and under the same terms, with `CC(=O)N[C@H](C(=O)N[C@@H](CO)C(=O)N[C@@H](CC(=O)O)C(=O)N[C@H]1CSSC[C@@H](C(=O)N2CCC[C@@]2(C)C(=O)N[C@@H](Cc2cccnc2)C(=O)N[C@@H](CC(=O)O)C(=O)N[C@H](CCCCNC(=O)CN2CCN(CC(=O)O)CCN(CC(=O)O)CCN(CC(=O)O)CC2)C(N)=O)NC(=O)[C@H](CC(N)=O)NC(=O)[C@H](Cc2c[nH]c3ccccc23)NC(=O)[C@H](CCC(N)=O)NC(=O)[C@H](CC(C)C)NC(=O)[C@H](Cc2cccc3ccccc23)NC1=O)C1CCCCC1` [compound 136, Ac-(Chg)-S-D-C(3)-(1Nal)-L-Q-W-N-C(3)-(aMe-P)-(3Pya)-D-[D-Lys(DOTA)]-NH2] (Ac-[Chg]SDC[1Nal]LQWNC[αMeP][3Pal]D[dK](DOTA)-NH2; disulfide 4-10) the figure was 7.66; with `CC(=O)N[C@H](C(=O)N[C@@H](CO)C(=O)N[C@@H](CC(=O)O)C(=O)N[C@H]1CSSC[C@@H](C(=O)N2CCC[C@@]2(C)C(=O)N[C@@H](Cc2ccncc2)C(=O)N[C@@H](CC(=O)O)C(=O)N[C@H](CCCCNC(=O)CN2CCN(CC(=O)O)CCN(CC(=O)O)CCN(CC(=O)O)CC2)C(N)=O)NC(=O)[C@H](CC(N)=O)NC(=O)[C@H](Cc2c[nH]c3ccccc23)NC(=O)[C@H](CCC(N)=O)NC(=O)[C@H](CC(C)C)NC(=O)[C@H](Cc2cccc3ccccc23)NC1=O)C1CCCCC1` [compound 137, Ac-(Chg)-S-D-C(3)-(1Nal)-L-Q-W-N-C(3)-(aMe-P)-(4Pya)-D-[D-Lys(DOTA)]-NH2] (Ac-[Chg]SDC[1Nal]LQWNC[αMeP][4Pal]D[dK](DOTA)-NH2; disulfide 4-10), < 7.52; with `CC(=O)N[C@H](CO)C(=O)N[C@@H](CC(=O)O)C(=O)N[C@H]1CSSC[C@@H](C(=O)N2CCC[C@@]2(C)C(=O)N[C@@H](Cc2ccccc2)C(=O)N[C@@H](CC(=O)O)C(=O)N[C@H](CCCCNC(=O)CN2CCN(CC(=O)O)CCN(CC(=O)O)CCN(CC(=O)O)CC2)C(N)=O)NC(=O)[C@H](CC(N)=O)NC(=O)[C@H](Cc2c[nH]c3ccccc23)NC(=O)[C@H](CCC(N)=O)NC(=O)[C@H](C2CCCCC2)NC(=O)[C@H](Cc2cccc3ccccc23)NC1=O` [compound 138, Ac-(D-Ser)-D-C(3)-(1Nal)-(Chg)-Q-W-N-C(3)-(aMe-P)-F-D-D-Lys(DOTA)-CONH2] (Ac-[dS]DC[1Nal][Chg]QWNC[αMeP]FD[dK](DOTA)-NH2; disulfide 3-9), 8.98.
Consider `CC(=O)N[C@H](CO)C(=O)N[C@@H](CC(=O)O)C(=O)N[C@H]1CSSC[C@@H](C(=O)N2CCC[C@@]2(C)C(=O)N[C@@H](Cc2ccccc2)C(=O)N[C@@H](CC(=O)O)C(=O)N[C@H](CCCCNC(=O)CN2CCN(CC(=O)O)CCN(CC(=O)O)CCN(CC(=O)O)CC2)C(N)=O)NC(=O)[C@H](CC(N)=O)NC(=O)[C@H](Cc2c[nH]c3ccccc23)NC(=O)[C@H](CCC(N)=O)NC(=O)[C@@H](CC(C)C)NC(=O)[C@H](Cc2cccc3ccccc23)NC1=O` [compound 139, Ac-(D-Ser)-D-C(3)-(1Nal)-(D-Leu)-Q-W-N-C(3)-(aMe-P)-F-D-D-Lys(DOTA)-CONH2] (Ac-[dS]DC[1Nal][dL]QWNC[αMeP]FD[dK](DOTA)-NH2; disulfide 3-9), for which the pKd is < 7.52.
The same measure, in the same setting: with `CC(=O)N[C@H](CO)C(=O)N[C@@H](CC(=O)O)C(=O)N[C@H]1CSSC[C@@H](C(=O)N2CCC[C@@]2(C)C(=O)N[C@@H](Cc2ccccc2)C(=O)N[C@@H](CC(=O)O)C(=O)N[C@H](CCCCNC(=O)CN2CCN(CC(=O)O)CCN(CC(=O)O)CCN(CC(=O)O)CC2)C(N)=O)NC(=O)[C@H](CC(N)=O)NC(=O)[C@H](Cc2c[nH]c3ccccc23)NC(=O)[C@H](CCC(N)=O)NC(=O)[C@H](CC2CC2)NC(=O)[C@H](Cc2cccc3ccccc23)NC1=O` [compound 140, Ac-(D-Ser)-D-C(3)-(1Nal)-(cPrA)-Q-W-N-C(3)-(aMe-P)-F-D-D-Lys(DOTA)-CONH2] (Ac-[dS]DC[1Nal][Ala(cPr)]QWNC[αMeP]FD[dK](DOTA)-NH2; disulfide 3-9) the figure was 8.82; with `CC(=O)N[C@H](CO)C(=O)N[C@@H](CC(=O)O)C(=O)N[C@H]1CSSC[C@@H](C(=O)N2CCC[C@@]2(C)C(=O)N[C@@H](Cc2ccccc2)C(=O)N[C@@H](CC(=O)O)C(=O)N[C@H](CCCCNC(=O)CN2CCN(CC(=O)O)CCN(CC(=O)O)CCN(CC(=O)O)CC2)C(N)=O)NC(=O)[C@H](CC(N)=O)NC(=O)[C@H](Cc2c[nH]c3ccccc23)NC(=O)[C@H](CCC(N)=O)NC(=O)[C@H](C2CCCC2)NC(=O)[C@H](Cc2cccc3ccccc23)NC1=O` [compound 141, Ac-(D-Ser)-D-C(3)-(1Nal)-(cPenG)-Q-W-N-C(3)-(aMe-P)-F-D-D-Lys(DOTA)-CONH2] (Ac-[dS]DC[1Nal][Gly(cPent)]QWNC[αMeP]FD[dK](DOTA)-NH2; disulfide 3-9), 8.93.
`CC(=O)N[C@H](C(=O)N[C@@H](CCCCNC(=O)CN1CCN(CC(=O)O)CCN(CC(=O)O)CCN(CC(=O)O)CC1)C(=O)N[C@@H](CC(=O)O)C(=O)N[C@H]1CSSC[C@@H](C(=O)N2CCC[C@@]2(C)C(=O)N[C@@H](Cc2ccccc2)C(=O)N[C@@H](CC(=O)O)C(N)=O)NC(=O)[C@H](CC(N)=O)NC(=O)[C@H](Cc2c[nH]c3ccccc23)NC(=O)[C@H](CCC(N)=O)NC(=O)[C@H](CC(C)C)NC(=O)[C@H](Cc2cccc3ccccc23)NC1=O)C1CCCCC1` [compound 142, Ac-(Chg)-[L-Lys(DOTA)]-D-C(3)-(1Nal)-L-Q-W-N-C(3)-(aMe-P)-F-D-CONH2] (Ac-[Chg]K(DOTA)DC[1Nal]LQWNC[αMeP]FD-NH2; disulfide 4-10) showed a negative-log Kd (pKd) of 7.69.
Turning to `CC(=O)N[C@H](C(=O)N[C@@H](CO)C(=O)N[C@@H](CC(=O)O)C(=O)N[C@H]1CSCc2ccccc2CSC[C@@H](C(=O)N2CCC[C@@]2(C)C(=O)N[C@@H](Cc2ccccc2)C(=O)N[C@@H](CC(=O)O)C(=O)N[C@H](CCCCNC(=O)CN2CCN(CC(=O)O)CCN(CC(=O)O)CCN(CC(=O)O)CC2)C(N)=O)NC(=O)[C@H](CC(N)=O)NC(=O)[C@H](Cc2c[nH]c3ccccc23)NC(=O)[C@H](CCC(N)=O)NC(=O)[C@H](CC(C)C)NC(=O)[C@H](Cc2cccc3ccccc23)NC1=O)C1CCCCC1` [compound 143, Ac-(Chg)-S-D-C(oDBX)-(1Nal)-L-Q-W-N-C(2)-(aMe-P)-F-D-D-Lys(DOTA)-CONH2] (Ac-[Chg]SDC[1Nal]LQWNC[αMeP]FD[dK](DOTA)-NH2; linker 4-10 via oXylylene), the “SPR KD (nM)” value is reported as “slow kon”.

The values are drawn from US20250186541A1, “DLL3 TARGETING PEPTIDES AND CONSTRUCTS THEREOF” (MARIANA ONCOLOGY INC., priority 2023, published 2025).
